Measured values: patent US20240025893A1, “PYRIMIDINE-AND NITROGEN-CONTAINING BICYCLIC COMPOUND” (Asahi Kasei Pharma Corporation, priority 2020, published 2024)
pIC50: −log10 of the molar value.

Legend:
[1] = system: collagen-induced arthritis in Lewis rats; test: Rat collagen-induced arthritis model (footpad volume); type: in vivo; details: 19 days after first immunization
Description: Eight weeks old female Lewis rats (SLC Inc.) were immunized with bovine type II collagen (CII, Collagen Technical Study Session, product number K41) to induce arthritis. A 1:1 mixed emulsion of the incomplete Freund's adjuvant (Difco, Cat. 263910) and a 3 mg/mL solution of CII was prepared, and 0.7 mL of the emulsion was injected to each rat at seven sites in the tale base part and skins of both fore and hind legs in a volume of 0.1 mL per site. Booster immunization was performed after 7 days by injecting 0.2 mL of the same 1:1 mixed emulsion of the incomplete Freund's adjuvant and CII as that used in the first day at two sites in the tale base part in a volume of 0.1 mL per site. After 12 days, footpad volumes of the both hind feet of the animals were measured by using Plethysmometer (UGO BASILE, Cat. 37140), and the individual animals were divided into groups according to the footpad volume ratio based on that of the normal group and body weight. After they were divided into groups, administration of a test compound or a solvent (vehicle, 0.5% methylcellulose) was started, and it was orally administered twice a day for 7 days (provided that, on the day of grouping, the administration was performed only once after grouping). After the start of the administration, the footpad volumes of both hind feet of the animals were measured every other day or every 3 days by using Plethysmometer, and influence of the test compound was evaluated.
Average value of the footpad volumes was calculated for each individual on each measurement day by using Excel 2010 (Microsoft), and plotted as a graph by using GraphPadPrism 7.03 (GraphPad Software, Inc.). The normal group was defined to be a 100% suppression group, and the solvent administration group was defined to be a 0% suppression group. The suppression ratios based on these controls were calculated for each concentration of the test compound by using Excel 2010 (Microsoft).

[2] = system: LPS-stimulated TNFα production in THP-1 cells; test: LPS-stimulated TNFα production inhibition test using human acute monocytic leukemia cell strain THP-1; type: cell-based; details: LPS 2.5 ng/mL, average values
Procedure, shortened: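 THP-1 cells were preincubated with compound for 1 h at 37 °C, then stimulated with LPS (2.5 ng/mL final) for 4 h. Supernatant TNFα was quantified by HTRF (620/665 nm ratio) against a calibration curve. IC50 came from a 4-parameter logistic fit, with no-LPS set as 100% and no-compound as 0% suppression.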

[3] = molecular target: human IRAK-4 (Homo sapiens (Human), UniProt Q9NWZ3); test: Measurement of human IRAK-4 inhibitory activity (TR-FRET, peptide substrate phosphorylation, 10 μM ATP); type: biochemical; details: 1 nM IRAK-4, 10 μM ATP, 23° C., 30 minutes; average values
Chain of human IRAK-4 (Q9NWZ3 whole entry): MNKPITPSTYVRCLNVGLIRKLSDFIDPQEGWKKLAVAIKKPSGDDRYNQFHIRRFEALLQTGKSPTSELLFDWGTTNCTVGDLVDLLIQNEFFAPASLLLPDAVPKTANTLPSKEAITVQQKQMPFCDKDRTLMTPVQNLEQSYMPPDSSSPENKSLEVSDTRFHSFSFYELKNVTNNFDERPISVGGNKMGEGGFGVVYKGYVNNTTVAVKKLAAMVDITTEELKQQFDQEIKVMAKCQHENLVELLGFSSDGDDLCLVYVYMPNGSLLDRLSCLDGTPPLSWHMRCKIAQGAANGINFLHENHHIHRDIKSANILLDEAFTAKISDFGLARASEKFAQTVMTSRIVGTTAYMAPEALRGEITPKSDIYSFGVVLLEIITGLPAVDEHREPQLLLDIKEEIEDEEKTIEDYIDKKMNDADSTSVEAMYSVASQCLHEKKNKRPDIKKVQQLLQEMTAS
Procedure, shortened: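 With 1 nM IRAK-4, 0.5 μM biotinylated peptide and 10 μM ATP, compound incubated 30 min at 23 °C in 50 mM HEPES pH 7.2 with Mg2+/Mn2+. Stopped with EDTA plus europium-cryptate anti-phosphopeptide antibody and streptavidin-XL665, 60 min at 23 °C. Activity taken as the 665/620 nm TR-FRET ratio.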

SMILES	suppression ratio (footpad volume) ([1]; 20 mg/kg orally twice a day)	suppression ratio (footpad volume) ([1]; 60 mg/kg orally twice a day)	suppression ratio (footpad volume) ([1]; 120 mg/kg orally twice a day)	pIC50 ([2]; Homo sapiens, THP-1, 4 h)	pIC50 [3]	pIC50 ([2]; 4 hours)
COc1c(-c2cnc(CO[C@H]3CCC[C@@H]3O)nc2)ccc2nc(NC(=O)C3CC3)sc12 [c-01-01, N-(6-(2-((((1S,2S)-2-Hydroxycyclopentyl)oxy)methyl)pyrimidin-5-yl)-7-methoxybenzo[d]thiazol-2-yl)cyclopropanecarboxamide]	45%	65%	77%	6.84	8.41	–
Cc1cc(C(=O)N2CCN([C@H]3C[C@@H](C(=O)Nc4cc5cc(-c6cnc(CO[C@H]7CCC[C@@H]7O)nc6)ccn5n4)C3)[C@@H](C)C2)cc(C)n1 [e-02-27]	–	–	–	7.27	8.86	–
COc1c(-c2cnc(CO[C@H]3CCC[C@@H]3O)nc2)ccn2nc(NC(=O)C3CC3)cc12 [e-04-01, N-(5-(2-((((1S,2S)-2-Hydroxycyclopentyl)oxy)methyl)pyrimidin-5-yl)-4-methoxypyrazolo[1,5-a]pyridin-2-yl)cyclopropanecarboxamide]	–	–	–	6.37	8.43	–
COc1c(-c2cnc(CO[C@H]3CCC[C@H]3O)nc2)ccn2nc(NC(=O)C3CC3)cc12 [e-04-02]	–	–	–	–	8.97	6.50
